In patent US10150945B2, “Cell culture device and manufacturing method therof” (JNC CORPORATION, priority 2004, dated 2018):

Tested on: A549 cells (human lung cancer cells)
Description: The cytotoxicity of ε-polylysines, the coating material used in the invention, to A549 cells (human lung cancer cells, obtained from ATCC) was evaluated. The cytotoxicity to ε-polylysine hydrochloride (Chisso Corp.) was compared with that to α-polylysine hydrobromide (Wako Pure Chemical, average molecular weight 15,000).
A549 cells were seeded on a 96-well microplate at a density of 1×10^4 cells/well. After culturing overnight at 37° C. under 5% CO2 using DME medium (containing 10% bovine embryonic serum), the medium was removed with an aspirator, and 40 μL each of fresh medium 1.25 times more concentrated as standard was added to each well. Finally 10 μL each of a polylysine salt solution that would eventually attain the specified concentration, and cultured at 37° C. for 3 hours.
After the 3-hour culture, the medium was removed again by an aspirator, 100 μL/well of fresh medium was added, and culture continued for 46 hours. The medium was still once more replaced by 110 μL of fresh medium, 10 μL each of Cell Counting Kit-8 (Dojindo Laboratories) was added and continued to be cultured for 2 hours at 37° C. for color reaction. A plate reader (Thermo Labsystems Multiskan Ascent BIF) was used to determine the absorbance at 450 nm (with 650 nm as a reference) and calculate the viability of the cells.

Substance: α-polylysine hydrobromide
- viability of the cells (FIG. 5): no difference
